# Results from patent publication US12624026B2, “Inhibitors of SARM1” (Disarm Therapeutics, Inc., priority 2018, dated 2026).
# Target: T1, SARM1 SAM-TIR (Homo sapiens, UniProt Q6SZW1);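 also: inhibition of SARM1 SAM-TIR NADase activity, i.e. NAD+ cleavage, using lysate of NRK1-HEK293T cells overexpressing the SAM-TIR fragment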
# T1 construct: a fragment of the SARM1 molecule encompassing the SAM and TIR domains; made in house; host or cells: NRK1-HEK293T cells, transiently transfected; the cleared, unpurified lysate was used as the enzyme
# T1 sequence (Q6SZW1 409-724 limits assumed): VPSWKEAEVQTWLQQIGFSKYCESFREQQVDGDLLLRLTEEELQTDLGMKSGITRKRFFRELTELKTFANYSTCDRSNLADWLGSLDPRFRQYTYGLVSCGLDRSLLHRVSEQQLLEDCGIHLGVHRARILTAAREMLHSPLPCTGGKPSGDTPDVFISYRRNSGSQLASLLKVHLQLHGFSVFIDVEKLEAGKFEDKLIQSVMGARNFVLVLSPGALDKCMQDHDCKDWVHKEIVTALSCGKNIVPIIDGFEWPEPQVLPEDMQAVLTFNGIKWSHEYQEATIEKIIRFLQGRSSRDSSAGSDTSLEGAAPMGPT
# Assay: biochemical
# Settings: not given
row,SMILES,IC50 [µM]
1,O=C(c1c(Nc2ccccc2C(F)(F)F)s[nH]c1=O)N1CCCC1 [Example 110],1 to 5
2,N#Cc1c(Nc2cccc(C3=CCNCC3)c2C(F)(F)F)s[nH]c1=O [Example 131],< 1

# Same assay, conditions: SAM-TIR lysate 5 μg/mL, 2 h pre-incubation, 5 μM NAD+, RapidFire MS of NAD+ and ADPR; read-out: SARM1 IC50
row,SMILES,IC50 [µM]
1,CN(C(=O)c1c(Nc2ccccc2C(F)(F)F)s[nH]c1=O)C1CCCCC1 [Example 112],1 to 5
2,COCCN(C)C(=O)c1c(Nc2ccccc2C(F)(F)F)sn([C@@H](C)c2ccccc2)c1=O [Example 114],> 5
3,COCCn1sc(Nc2c(Cl)cccc2Cl)c(C(N)=O)c1=O [Example 118],> 5
4,COCCN(C)C(=O)c1c(Nc2c(Cl)cccc2Cl)s[nH]c1=O [Example 119],> 5
5,COc1ccc(Cn2sc(N(CCF)c3ccccc3C(F)(F)F)c(C#N)c2=O)cc1 [Example 121],> 5
6,COCCN(C)C(=N)c1c(Nc2cccc(Cl)c2Cl)sn(CCOC)c1=O [Example 124],< 1
7,COCCn1sc(Nc2cccc(Cl)c2Cl)c(C(=N)N2CCCCC2)c1=O [Example 127],< 1
8,C[C@@H](c1ccccc1)n1sc(Nc2ccccc2C(F)(F)F)c(C(=N)N(C)C)c1=O [Example 128],< 1
9,COCCn1sc(Nc2cccc(Cl)c2Cl)c(C(=N)N2CCOCC2)c1=O [Example 130],< 1
10,Cn1sc(Nc2c(Cl)cccc2Cl)c(C(=N)N2CCOCC2)c1=O [Example 132],< 1
11,CN(C)C(=N)c1c(Nc2cccc(Cl)c2Cl)s[nH]c1=O [Example 133],< 1
12,C[C@@H](c1ccccc1)n1sc(Nc2c(Cl)cccc2Cl)c(C(=N)N(C)C)c1=O [Example 134],1 to 5
13,COCCn1sc(Nc2c(OC)cccc2C(F)(F)F)c(C(=N)N(C)C)c1=O [Example 135],1 to 5
14,N=C(c1c(Nc2cccc(Cl)c2Cl)s[nH]c1=O)N1CCOCC1 [Example 136],1 to 5
15,C[C@@H](c1ccccc1)n1sc(Nc2ccccc2C(F)(F)F)c(C(=N)N2CCOCC2)c1=O [Example 137],1 to 5
16,COCCN(C)C(=N)c1c(Nc2cccc(Cl)c2Cl)s[nH]c1=O [Example 139],1 to 5
17,Cn1sc(Nc2c(F)cccc2Cl)c(C(=O)N2CCOCC2)c1=O [Example 140],1 to 5
18,Cn1sc(Nc2c(Cl)cccc2Cl)c(C(=O)N2CCOCC2)c1=O [Example 143],1 to 5
19,N#Cc1c(Nc2ccc(N3CC[C@@H](N)C3)nc2)s[nH]c1=O [Example 144],1 to 5

row,SMILES,IC50 [µM]
1,CN(C)C(=N)c1c(Nc2c(Cl)ccc3ncccc23)s[nH]c1=O [Example 145],1 to 5
2,C[C@@H](c1ccccc1)n1sc(Nc2ccccc2C(F)(F)F)c(C(=O)N2CCOCC2)c1=O [Example 147],1 to 5
3,O=C(c1c(Nc2c(F)cccc2Cl)s[nH]c1=O)N1CCOCC1 [Example 149],1 to 5
4,N#Cc1c(Nc2ccc3c(c2)ncn3[C@H]2CCNC2)s[nH]c1=O [Example 151],1 to 5
5,O=C(c1c(Nc2c(Cl)cccc2Cl)s[nH]c1=O)N1CCOCC1 [Example 153],1 to 5
6,COc1cccc(C#N)c1Nc1sn(CC(C)(C)O)c(=O)c1C(=O)N1CCOCC1 [Example 154],> 5
7,COc1cccc(C(F)(F)F)c1Nc1sn(C)c(=O)c1C(=O)N1CCOCC1 [Example 158],> 5
8,COc1cccc(C(F)(F)F)c1Nc1s[nH]c(=O)c1C(=O)N1CCOCC1 [Example 159],> 5
9,COCCn1sc(N(C)c2ccccc2C(F)(F)F)c(-c2ncon2)c1=O [Example 160],> 5
10,C[C@@H](c1ccccc1)n1sc(Nc2c(Cl)cccc2Cl)c(C(=N)N2CCOCC2)c1=O [Example 165],> 5
11,C[C@@H](c1ccccc1)n1sc(Nc2c(Cl)cccc2Cl)c(C(=O)N2CCOCC2)c1=O [Example 167],1 to 5
12,N#Cc1c(NC2CCCCC2)s[nH]c1=O [Example 170],> 5
13,CN(C(=O)c1c(Nc2ccccc2C(F)(F)F)s[nH]c1=O)c1ccccc1 [Example 172],1 to 5
14,N#Cc1c(Nc2ccc3nc(C(F)(F)F)[nH]c(=O)c3c2)s[nH]c1=O [Example 173],> 5
15,O=C(c1c(Nc2ccccc2C(F)(F)F)s[nH]c1=O)N1CC2CCC1CC2 [Example 174],> 5
16,N#Cc1c(Nc2ccccc2C(F)(F)F)sn(CCCCCNC(=O)CCCC[C@@H]2SC[C@@H]3NC(=O)N[C@@H]32)c1=O [Example 175],< 1
17,Cc1cc(C)n2c1CC1C=CC(CCC(=O)NCCCCCn3sc(Nc4ccccc4C(F)(F)F)c(C#N)c3=O)=[N+]1[B-]2(F)F (stereo not drawn) [Example 176],1 to 5
18,Cc1cc(C)n2c1C=C1C=CC(CCC(=O)NCCOCCOCCn3sc(Nc4ccccc4C(F)(F)F)c(C#N)c3=O)=[N+]1[B-]2(F)F [Example 177],< 1
19,N#Cc1c(Nc2ccccc2C(F)(F)F)sn(CCOCCOCCNC(=O)CCCC[C@@H]2SC[C@@H]3NC(=O)N[C@@H]32)c1=O [Example 178],< 1

# Results, then the molecule that gave them:
row,IC50 [µM],SMILES
1,< 1,N#Cc1c(O)nsc1Nc1ccccc1C(F)(F)F [Example 6]
2,1 to 5,Cc1ccccc1Nc1snc(O)c1C#N [Example 7]
3,1 to 5,N#Cc1c(Nc2c(Cl)ccc3ncccc23)s[nH]c1=O [Example 104]
4,< 1,N#Cc1c(Nc2ccccc2C(F)(F)F)sn(CCC(=O)O)c1=O [Example 105]
5,1 to 5,COc1ccc2nc(C)ccc2c1Nc1s[nH]c(=O)c1C#N [Example 106]
6,< 1,CC(C)n1sc(Nc2ccccc2C(F)(F)F)c(C#N)c1=O [Example 107]
7,1 to 5,N#Cc1c(Nc2cccc(C(N)=O)c2C(F)(F)F)s[nH]c1=O [Example 108]
8,1 to 5,COc1cccc(C)c1Nc1s[nH]c(=O)c1C#N [Example 109]
9,1 to 5,N#Cc1c(Nc2ccccc2C2CC2)s[nH]c1=O [Example 111]
10,1 to 5,COc1cccc(OC)c1Nc1s[nH]c(=O)c1C#N [Example 113]
11,1 to 5,CN(C)C(=O)c1c(Nc2ccccc2C(F)(F)F)s[nH]c1=O [Example 115]
12,> 5,COCCN(C)C(=O)c1c(Nc2ccccc2C(F)(F)F)s[nH]c1=O [Example 116]
13,1 to 5,O=C(c1c(Nc2ccccc2C(F)(F)F)s[nH]c1=O)N1CCCCC1 [Example 117]
14,> 5,N#Cc1c(Nc2cccc(C(=O)O)c2C(F)(F)F)s[nH]c1=O [Example 120]
15,< 1,N#Cc1c(Nc2cccc3ncccc23)sn(CCC(N)=O)c1=O [Example 122]
16,> 5,COC(=O)c1c(Nc2ccccc2C(F)(F)F)s[nH]c1=O [Example 123]
17,< 1,CN(C)C(=N)c1c(Nc2ccccc2Cl)sn(C)c1=O [Example 125]

row,IC50 [µM],SMILES
1,< 1,Cn1sc(Nc2ccccc2Cl)c(C(=N)N2CCOCC2)c1=O [Example 126]
2,1 to 5,CN(C)C(=N)c1c(Nc2ccccc2C(F)(F)F)s[nH]c1=O [Example 138]
3,1 to 5,COCCN(C)C(=N)c1c(Nc2ccccc2C(F)(F)F)s[nH]c1=O [Example 141]
4,1 to 5,CN(C)C(=N)c1c(Nc2ccccc2C2CC2)s[nH]c1=O [Example 146]
5,1 to 5,O=C(c1c(Nc2ccccc2C(F)(F)F)s[nH]c1=O)N1CCOCC1 [Example 148]
6,1 to 5,N#Cc1c(Nc2ccc(N3CC[C@@H](O)C3)nc2)s[nH]c1=O [Example 150]
7,> 5,COCCn1sc(Nc2ccccc2C(F)(F)F)c(-c2ncon2)c1=O [Example 152]
8,> 5,N#Cc1c(Nc2cccc(C3CCCNC3)c2C(F)(F)F)s[nH]c1=O (stereo not drawn) [Example 157]
9,> 5,N#Cc1c(Nc2cccc(-c3ccc4cc[nH]c4c3)c2C(F)(F)F)s[nH]c1=O [Example 161]
10,> 5,N#Cc1c(N2CCc3ccccc32)s[nH]c1=O [Example 162]
11,> 5,N#Cc1c(Nc2cccc(C3CCNCC3)c2C(F)(F)F)s[nH]c1=O [Example 163]
12,1 to 5,O=c1cc(Nc2ccccc2C(F)(F)F)s[nH]1 [Example 166]
13,> 5,O=c1[nH]sc(Nc2ccccc2C(F)(F)F)c1-c1ccccc1 [Example 168]
14,> 5,Cc1c(Nc2ccccc2C(F)(F)F)s[nH]c1=O [Example 169]
15,< 1,C#CCOCCOCCn1sc(Nc2ccccc2C(F)(F)F)c(C#N)c1=O [Example 179]
16,< 1,C#CCOCCOCCOCCn1sc(Nc2ccccc2C(F)(F)F)c(C#N)c1=O [Example 180]

# Tested on: mouse dorsal root ganglion (DRG) drop culture
# Assay: Axon degeneration assay in mouse DRG drop culture
# Format: cell-based
# Settings: protection of axon fragmentation, axonal transection or chemotoxic stimuli
# Method: This Example illustrates an in vitro axon degeneration assay used to characterize compounds of Formula I or Formula II. This assay is used to test the efficacy of the compounds of Formula I or Formula II to prevent axonal degeneration in a mouse dorsal root ganglion (DRG) drop culture.
# Mouse DRG Drop culture: Mouse dorsal root ganglion neurons (DRGs) were dissected out of E12.5 CD1 mice (50 ganglion per embryo) and incubated with 0.5% Trypsin solution containing 0.02% EDTA (Gibco) at 37° C. for 15 min. The cells were then triturated by gentle pipetting and washed 3 times with DRG growth medium (Neurobasal medium (Gibco) containing 2% B27 (Invitrogen), 100 ng/ml 2.5S NGF (Harland Bioproducts), […] 5-fluoro-2′deoxyuridine (Sigma), penicillin, and streptomycin). Cells were suspended in the DRG growth medium. DRG drop cultures were created by spotting 5000 cells/well into the center of each well of a 96-well tissue culture plate coated with poly-D-Lysine (0.1 mg/ml; Sigma) and laminin ([…]; Invitrogen). Cells were allowed to adhere to the plates in a humidified tissue culture incubator (5% CO2) for 15 min and then DRG growth medium was gently added ([…]).
# Axon degeneration assay: Axonal degeneration was stimulated either by manual axonal transection using a scalpel blade, or chemotoxic stimuli. After an appropriate experimental time period, the DRG cultures were fixed in 1% PFA plus sucrose and kept in the fridge prior to imaging. Bright-field images of DRG axons and cell bodies were collected using the 20× water immersion lens of a Phenix automated confocal microscope (PerkinElmer) and quantitation of axonal performed using in-house developed scripts (Acapella, PerkinElmer).
row,SMILES,IC50 [µM]
1,N#Cc1c(O)nsc1Nc1ccccc1C(F)(F)F [Example 6],10 to 30
2,Cc1ccccc1Nc1snc(O)c1C#N [Example 7],10 to 30
